# Experimental data: patent US20220313620A1, “COMPOSITION FOR PREVENTING AND TREATING TAUOPATHIES” (SERVICIO ANDALUZ DE SALUD, priority 2019, published 2022)
# Tested on: tau protein
# Test: Hippocampal tau phosphorylation and total tau (western blot) after 10 days of oral drinking
# Assay type: in vivo, Wistar rats
# Conditions: oral by drinking 100 mg/Kg for 10 days, hippocampus
# Description: Animal experimental procedures were carried out in accordance with the European Communities directive 2010/63/EU and Spanish legislation (Real Decreto 53/2013). The protocol was approved by the Research and approved by Ethics Committee for Animal Experiments of the University of Malaga, Spain. In accordance with the ARRIVE guidelines, all efforts were made to minimize animal suffering and to reduce the number of animals used per experimental group. Chronic drinking experiments on Wistar rats were performed on 20 male rats. All adult rats, ageing 2 months (≈300 g of body weight), were provided by Charles River Laboratories (Barcelona, Spain). The animals were housed individually under a standard 12 h light-dark cycle in a room with temperature and humidity control. Water and rat chow pellets were provided ad libitum throughout the course of the present study.
# Caromax®-D-Pinitol (3-O-methyl-d-chiro-inositol, DPIN, 98% purity) and Caromax®-D-Chiro-inositol (cis-1,2,3-trans-3,5,6-cyclohexanehexol, DCI) were provided by Euronutra SL (Málaga, Spain). They were dissolved in water to orally daily administration by drinking and/or gavage at dose of 100 mg/Kg of body weight (BW) in a 1 ml/kg of BW volume to Zucker and Wistar rats for 4 weeks (28 days) and 10 days, respectively (FIG. 1). During the drinking treatments, the concentration of inositols in the water were updated considering the daily increase of BW of the rats and the possible loss of water by evaporation.
# Brain extract. Frozen brain samples (17 mg per sample) were homogenized in 1 mL of cold RIPA lysis buffer (50 mM Tris-HCl pH 7.4, 150 mM NaCl, 0.5% NaDOC, 1 mM EDTA, 1% Triton, 0.1% SDS, 1 mM Na3VO4, 1 mM NaF) supplemented with a protease cocktail (Hoffmann-Roche). The suspension was incubated for 2 hours at 4° C., followed by centrifugation at 12,000 rpm for 15 minutes at 4° C. The supernatant was transferred to a new clean centrifuge tube, and Bradford colorimetric method was used to determine the concentration of the total protein. The protein extracts were diluted 1:1 in loading buffer (DTT 2X) and heated for 5 minutes at 99° C. before being subjected to electrophoresis.
# Western Blot Analysis. The tissue protein (10-15 μg) was subjected to electrophoresis on 4-12% Criterion XT Precast Bis-Tris gels (Bio-Rad, USA) for 30 minutes at 80V and 2 h at 150V. […] Bands were quantified by densitometric analysis using ImageJ software (Rasband, WS, ImageJ, US National Institutes of Health, Bethesda, Md., USA). […] The results were expressed as the protein/α-Adaptin ratio or phosphorylated/total protein ratio and normalized to the control group (Y axis represents ‘fold mean of the control values’).
# All data are expressed as mean±SEM. […]
structure (smiles),measurement,setting,value
"COC1[C@@H](O)[C@@H](O)C(O)[C@H](O)[C@H]1O (stereo partly drawn) [DPIN, (1S,2S,4S,5R)-6-methoxycyclohexane-1,2,3,4,5-pentol]","quantity of phospho-tau (AT8: Ser202, Thr205) compared with vehicle group",FIG. 7A.1,dropped to more than half
same,relative protein levels of total tau compared with vehicle group,FIG. 7A.2,rise
